Some test systems named below: MALME-3M melanoma; CCRF-CEM leukemia; MCF7 breast; HOP-62 NSCLC; HCT-15 colon; UACC-257 melanoma; U251 CNS; PC-3 prostate.
Holding throughout (test): growth of human tumour cells (NCI), 48 h

Several values for one entry are separate records, joined by “and”; a condition that tells them apart may be missing. Equal entries are not always repeated.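 Assay format: 96-well plates, 48-hour exposure. GI50 = concentration required for 50% inhibition of growth. The concentration for full growth arrest is given as TGI.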 A value given as a limit tells only on which side of the number the result lay.

As to `C=CC(=O)Nc1cccc(Oc2nc(Nc3ccc(N4CCN(C)CC4)cc3)nc3ccsc23)c1`, the GI50 in the assay with MALME-3M melanoma is 1.63 µM and 1.83 µM; in the assay on CCRF-CEM leukemia, 2.6 µM; in the assay with MCF7 breast, 2.22 µM and 1.72 µM; in the assay on HOP-62 NSCLC, 3.71 µM and 3.73 µM; in the assay on HCT-15 colon, 2.32 µM and 2.54 µM; in the assay with UACC-257 melanoma, 2.6 µM and 1.98 µM. Besides, the GI50 was 2.89 µM and 2.97 µM in the assay on U251 CNS; 2.36 µM and 2.87 µM in the assay with PC-3 prostate. Further, the TGI with MALME-3M melanoma was 3.14 µM and 3.66 µM; in the assay on CCRF-CEM leukemia it was 9.88 µM; in the assay on MCF7 breast, 8.96 µM and 4.48 µM; in the assay with HOP-62 NSCLC it was > 10 µM and 15.7 µM; in the assay on HCT-15 colon, 9.5 µM and 10.6 µM; in the assay with UACC-257 melanoma it was 8.59 µM and 3.83 µM. Further, the TGI is > 10 µM and 9.01 µM with U251 CNS; 8.25 µM and 7.33 µM in the assay on PC-3 prostate.
Take `CN1CCN(C(=O)c2cc(-c3ccc4ncnc(N5CCc6cc(F)c(Cl)cc65)c4c3)cnc2N)CC1`: the GI50 is 0.123 µM in the assay on MALME-3M melanoma; 0.266 µM in the assay on CCRF-CEM leukemia; 0.0992 µM in the assay on MCF7 breast; 0.244 µM with HOP-62 NSCLC; 0.251 µM in the assay with HCT-15 colon; 0.334 µM with UACC-257 melanoma. Besides, the GI50 is 0.348 µM in the assay with U251 CNS and 0.176 µM in the assay on PC-3 prostate. The TGI in the assay on MALME-3M melanoma amounted to 0.843 µM; in the assay with CCRF-CEM leukemia it was 4.92 µM; in the assay with MCF7 breast, 1.89 µM; in the assay with HOP-62 NSCLC it was 4.46 µM; in the assay with HCT-15 colon, 2.63 µM; with UACC-257 melanoma, 3.52 µM. Also, the TGI in the assay on U251 CNS is 5.71 µM; with PC-3 prostate it was 3.78 µM.
As for `O=C1OCC2=C1C(c1ccc(Cl)c(Cl)c1)c1cc3c(cc1N2CCO)OCCO3` (centres undefined), the GI50 was 0.249 µM in the assay on MALME-3M melanoma; 0.184 µM in the assay on CCRF-CEM leukemia; 0.208 µM in the assay on MCF7 breast; 0.295 µM with HOP-62 NSCLC; 0.245 µM with HCT-15 colon; 0.181 µM in the assay with UACC-257 melanoma. The GI50 in the assay on U251 CNS was 0.206 µM; with PC-3 prostate it was 0.189 µM. Further, the TGI in the assay with MALME-3M melanoma is 25.8 µM; in the assay on CCRF-CEM leukemia, 16.7 µM; in the assay on MCF7 breast, greater than 50 µM; in the assay on HOP-62 NSCLC, 15.1 µM; in the assay with HCT-15 colon, greater than 50 µM; in the assay on UACC-257 melanoma it was 19.4 µM. In addition, the TGI in the assay on U251 CNS amounted to 12.7 µM; in the assay on PC-3 prostate it was 8.66 µM.
Consider `O=C(O)CN1CCN(CC(=O)O)CC(=O)[O][Hg][O]C(=O)C1`, for which the GI50 was 16.6 µM with MALME-3M melanoma; 3.96 µM with CCRF-CEM leukemia; 20.3 µM with MCF7 breast; 25.1 µM in the assay on HOP-62 NSCLC; 21.1 µM in the assay on HCT-15 colon; 15.4 µM with UACC-257 melanoma. Moreover, the GI50 is 12.2 µM in the assay with U251 CNS and 16.5 µM in the assay with PC-3 prostate. For the same molecule, the TGI in the assay with MALME-3M melanoma is 33 µM; in the assay on CCRF-CEM leukemia, 32 µM; with MCF7 breast, 45.1 µM; in the assay on HOP-62 NSCLC it was greater than 66.2 µM; in the assay with HCT-15 colon, 46.5 µM; in the assay with UACC-257 melanoma, 28.7 µM. The results for the TGI with U251 CNS and in the assay with PC-3 prostate were 25.7 µM and 30.5 µM, respectively.
Regarding `Cc1ccc(/C=N\NC(=O)c2[nH]c3ccc(F)cc3c2-c2ccccc2)cc1`, the GI50 was 0.0572 µM with MALME-3M melanoma; 0.0275 µM in the assay on CCRF-CEM leukemia; 0.0299 µM in the assay with MCF7 breast; 0.0422 µM with HOP-62 NSCLC; 0.0288 µM in the assay on HCT-15 colon; 0.493 µM with UACC-257 melanoma. Moreover, the GI50 with U251 CNS is 0.0378 µM; with PC-3 prostate, 0.0345 µM. In addition, the TGI is greater than 80.9 µM in the assay on MALME-3M melanoma; greater than 100 µM in the assay on CCRF-CEM leukemia; greater than 100 µM in the assay with MCF7 breast; 5.88 µM in the assay with HOP-62 NSCLC; greater than 100 µM in the assay with UACC-257 melanoma; greater than 58.9 µM in the assay with U251 CNS. The molecule further yielded a TGI in the assay with PC-3 prostate of 20.6 µM.
For `COc1cc2c(cc1C1COc3cc4occc4cc3C1=O)OCO2` (centres undefined), the TGI in the assay with MALME-3M melanoma, with CCRF-CEM leukemia, in the assay on MCF7 breast, in the assay on HOP-62 NSCLC, with HCT-15 colon and with UACC-257 melanoma was greater than 100 µM throughout. Besides, the TGI with U251 CNS and in the assay with PC-3 prostate was greater than 100 µM each time.
With `O=C1CCC(N2Cc3cc(CNC(=O)C(F)(F)c4ccc(Cl)cc4)ccc3C2=O)C(=O)N1` (centres undefined), the GI50 in the assay with MALME-3M melanoma was 0.105 µM; in the assay on CCRF-CEM leukemia it was less than 0.0156 µM; in the assay on MCF7 breast it was greater than 100 µM; in the assay with HOP-62 NSCLC, 3.02 µM; with HCT-15 colon it was 0.511 µM; in the assay on UACC-257 melanoma, greater than 100 µM. The GI50 was greater than 100 µM with U251 CNS and 4.71 µM in the assay with PC-3 prostate. In addition, the TGI was greater than 27.9 µM in the assay on MALME-3M melanoma; greater than 100 µM with MCF7 breast; greater than 100 µM with HOP-62 NSCLC; greater than 100 µM in the assay with HCT-15 colon; greater than 100 µM in the assay with UACC-257 melanoma; greater than 100 µM in the assay on U251 CNS. Also, in the assay with PC-3 prostate, the TGI was greater than 100 µM.
As to `CN[C@@H](C)C(=O)N[C@H](C(=O)N1CCC[C@H]1C(=O)Nc1sc(-c2ncco2)nc1-c1ccccc1)C1CCCCC1`, the GI50 is 3.91 µM in the assay on MALME-3M melanoma; 32.5 µM in the assay with CCRF-CEM leukemia; 21.7 µM in the assay with MCF7 breast; greater than 92.2 µM in the assay on HOP-62 NSCLC; 22.6 µM in the assay on HCT-15 colon; 17.5 µM with UACC-257 melanoma. The GI50 in the assay on U251 CNS is 26.9 µM; in the assay with PC-3 prostate, 42 µM. Moreover, the TGI was 19.4 µM in the assay on MALME-3M melanoma; greater than 100 µM in the assay on CCRF-CEM leukemia; greater than 100 µM in the assay with MCF7 breast; greater than 100 µM with HOP-62 NSCLC; greater than 78.7 µM in the assay with HCT-15 colon; 34 µM in the assay with UACC-257 melanoma. Also, the TGI in the assay on U251 CNS was greater than 77.7 µM; in the assay on PC-3 prostate, greater than 100 µM.
As for `O=S(=O)(c1ccc(Cl)cc1)C(Cl)(Cl)Cl`, the GI50 in the assay on MALME-3M melanoma is 0.244 µM; with CCRF-CEM leukemia it was 1.62 µM; in the assay with MCF7 breast, 2.72 µM; in the assay with HOP-62 NSCLC, 8.12 µM; in the assay with HCT-15 colon it was 1.19 µM; in the assay on UACC-257 melanoma, 2.1 µM. Also, the values for the GI50 in the assay on U251 CNS and in the assay on PC-3 prostate were 3.96 µM and 4.73 µM, respectively. For the same molecule, the TGI in the assay with MALME-3M melanoma is 3.89 µM; with CCRF-CEM leukemia it was greater than 32.6 µM; in the assay with MCF7 breast, greater than 100 µM; with HOP-62 NSCLC it was greater than 49.5 µM; in the assay with HCT-15 colon, greater than 100 µM; in the assay with UACC-257 melanoma, 11.8 µM. For the same molecule, the TGI with U251 CNS was 21.1 µM; with PC-3 prostate, greater than 62.5 µM.

The values above are taken from PubChem BioAssay (NCI).
